Measured values taken from patent US10100049B2, “JAK kinase inhibitor compounds for treatment of respiratory disease” (THERAVANCE BIOPHARMA R&D IP, LLC, priority 2015, dated 2018).
Read-outs that look alike come from different tables or passages of the source. One block for each molecule: values may come before it.

Legend:
[1] = target: JAK1 (Homo sapiens (Human), UniProt P23458); experiment: LanthaScreen JAK biochemical assay (JAK1); settings: for fold less potent than the corresponding compound of the invention in the enzyme assay: JAK1 enzyme assay
[2] = tested on: IL-13 induced STAT6 phosphorylation in BEAS-2B human lung epithelial cells; experiment: AlphaScreen cellular potency assay, IL-13 induced STAT6 phosphorylation in BEAS-2B cells; format: cell-based; settings: for IC50: Homo sapiens
[3] = tested on: IL-13 induced pSTAT6 in lung tissue; experiment: Murine model of IL-13 induced pSTAT6 induction in lung tissue; format: in vivo; settings: mouse lung; for factor by which lung concentration was smaller than that of the corresponding compound of the invention: pharmacodynamic assay; for inhibition in vivo at 500 µg/mL: 0.5 mg/mL, 50 μL oral aspiration, IL-13 challenge 4 h after dosing, lungs collected 1 h later, read-out: pSTAT6 inhibition Assay 5
Description: Il-13 is an important cytokine underlying the pathophysiology of asthma (Kudlacz et al. Eur. J. Pharmacol, 2008, 582, 154-161). IL-13 binds to cell surface receptors activating members of the Janus family of kinases (JAK) which then phosphorylate STAT6 and subsequently activates further transcription pathways. In the described model, a dose of IL-13 was delivered locally into the lungs of mice to induce the phosphorylation of STAT6 (pSTAT6) which is then measured as the endpoint.
Adult balb/c mice from Harlan were used in the assay. On the day of study, animals were lightly anesthetized with isoflurane and administered either vehicle or test compound (0.5 mg/mL, 50 μL total volume over several breaths) via oral aspiration. Animals were placed in lateral recumbency post dose and monitored for full recovery from anesthesia before being returned to their home cage. Four hours later, animals were once again briefly anesthetized and challenged with either vehicle or IL-13 (0.03 μg total dose delivered, 50 μL total volume) via oral aspiration before being monitored for recovery from anesthesia and returned to their home cage. One hour after vehicle or IL-13 administration, lungs were collected for both pSTAT6 detection using an anti-pSTAT6 ELISA (rabbit mAb capture/coating antibody; mouse mAb detection/report antibody: anti-pSTAT6-pY641; secondary antibody: anti-mouse IgG-HRP) and analyzed for total drug concentration as described above in Assay 4.
Selected compounds of the invention were tested in the assay. Activity in the model is evidenced by a decrease in the level of pSTAT6 present in the lungs of treated animals at 5 hours compared to the vehicle treated, IL-13 challenged control animals. The difference between the control animals which were vehicle-treated, IL-13 challenged and the control animals which were vehicle-treated, vehicle challenged dictated the 0% and 100% inhibitory effect, respectively, in any given experiment.

[4] = Dynamic moisture sorption assessment; format: physicochemical
Description: Dynamic moisture sorption (DMS) measurement was performed using a VTI atmospheric microbalance, SGA-100 system (VTI Corp., Hialeah, Fla. 33016). A weighed sample was used and the humidity was lowest possible value (close to 0% RH) at the start of the analysis. The DMS analysis consisted of an initial drying step (˜0% RH) for 120 minutes, followed by two cycles of sorption and desorption with a scan rate of 5% RH/step over the humidity range of 5% RH to 90% RH. The DMS run was performed isothermally at 25° C.

[5] = target: JAK3 (Homo sapiens (Human), UniProt P52333); experiment: LanthaScreen JAK biochemical assay (JAK3); settings: ATP at Km 1.6 μM; read-out: JAK 3 (pKi) (converted)
[6] = target: Tyk2 (Homo sapiens (Human), UniProt P29597); experiment: LanthaScreen JAK biochemical assay (Tyk2); settings: read-out: Tyk 2 (PKi); also: ATP at Km 10 µM
[7] = Pharmacokinetics in plasma and lung in mouse; format: in vivo; settings: oral aspiration 0.2 mg/mL 50 uL, lung AUC (μg hr/g) / plasma AUC (μg hr/mL)
Description: Plasma and lung levels of test compounds and ratios thereof were determined in the following manner. BALB/c mice from Charles River Laboratories were used in the assay. Test compounds were individually formulated in 20% propylene glycol in pH 4 citrate buffer at a concentration of 0.2 mg/mL and 50 uL of the dosing solution was introduced into the trachea of a mouse by oral aspiration. At various time points (typically 0.167, 2, 6, 24 hr) post dosing, blood samples were removed via cardiac puncture and intact lungs were excised from the mice. Blood samples were centrifuged (Eppendorf centrifuge, 5804R) for 4 minutes at approximately 12,000 rpm at 4° C. to collect plasma. Lungs were padded dry, weighed, and homogenized at a dilution of 1:3 in sterile water. Plasma and lung levels of test compound were determined by LC-MS analysis against analytical standards constructed into a standard curve in the test matrix. A lung to plasma ratio was determined as the ratio of the lung AUC in μg hr/g to the plasma AUC in μg hr/mL, where AUC is conventionally defined as the area under the curve of test compound concentration vs. time.

[8] = tested on: Alternaria-induced BALF eosinophils; experiment: Murine model of Alternaria alternata-induced eosinophilic inflammation of the lung; format: in vivo; settings: mouse; maximum statistically significant inhibition; 0.1-1.0 mg/mL, 50 μL oropharyngeal aspiration; BALF 48 h after alternaria
Description: Airway eosinophilia is a hallmark of human asthma. Alternaria alternata is a fungal aeroallergen that can exacerbate asthma in humans and induces eosinophilic inflammation in the lungs of mice (Havaux et al. Clin Exp Immunol. 2005, 139(2):179-88).
Seven- to nine-week old male C57 mice from Taconic were used in the study. On the day of study, animals were lightly anesthetized with isoflurane and administered either vehicle or test compound (0.1-1.0 mg/mL, 50 μL total volume over several breaths) via oropharyngeal aspiration. Animals were placed in lateral recumbency post dose and monitored for full recovery from anesthesia before being returned to their home cage. One hour later, animals were once again briefly anesthetized and challenged with either vehicle or alternaria extract (200 ug total extract delivered, 50 μL total volume) via oropharyngeal aspiration before being monitored for recovery from anesthesia and returned to their home cage. Forty-eight hours after alternaria administration, bronchoalveolar lavage fluid (BALF) was collected and eosinophils were counted in the BALF using the Advia 120 Hematology System (Siemens).
Selected compounds of the invention were tested in this alternaria assay. Activity in the model is evidenced by a decrease in the level of eosinophils present in the BALF of treated animals at forty-eight hours compared to the vehicle treated, alternaria challenged control animals. Data are expressed as percent inhibition of the vehicle treated, alternaria challenged BALF eosinophils response. To calculate percent inhibition, the number of BALF eosinophils for each condition is converted to percent of the average vehicle treated, alternaria challenged BALF eosinophils and subtracted from one-hundred percent.

[9] = target: JAK2 (Homo sapiens (Human), UniProt O60674)
[10] = IL-13 induced STAT6 phosphorylation, BEAS-2B cells, read-out: BEAS-2B pIC50 (converted)
[11] = read-out: pKi, JAK1 enzyme assay (converted)
[12] = BEAS-2B, read-out: BEAS-2B pIC50 (cellular potency) (converted)

Sequence of JAK1 (P23458 whole entry): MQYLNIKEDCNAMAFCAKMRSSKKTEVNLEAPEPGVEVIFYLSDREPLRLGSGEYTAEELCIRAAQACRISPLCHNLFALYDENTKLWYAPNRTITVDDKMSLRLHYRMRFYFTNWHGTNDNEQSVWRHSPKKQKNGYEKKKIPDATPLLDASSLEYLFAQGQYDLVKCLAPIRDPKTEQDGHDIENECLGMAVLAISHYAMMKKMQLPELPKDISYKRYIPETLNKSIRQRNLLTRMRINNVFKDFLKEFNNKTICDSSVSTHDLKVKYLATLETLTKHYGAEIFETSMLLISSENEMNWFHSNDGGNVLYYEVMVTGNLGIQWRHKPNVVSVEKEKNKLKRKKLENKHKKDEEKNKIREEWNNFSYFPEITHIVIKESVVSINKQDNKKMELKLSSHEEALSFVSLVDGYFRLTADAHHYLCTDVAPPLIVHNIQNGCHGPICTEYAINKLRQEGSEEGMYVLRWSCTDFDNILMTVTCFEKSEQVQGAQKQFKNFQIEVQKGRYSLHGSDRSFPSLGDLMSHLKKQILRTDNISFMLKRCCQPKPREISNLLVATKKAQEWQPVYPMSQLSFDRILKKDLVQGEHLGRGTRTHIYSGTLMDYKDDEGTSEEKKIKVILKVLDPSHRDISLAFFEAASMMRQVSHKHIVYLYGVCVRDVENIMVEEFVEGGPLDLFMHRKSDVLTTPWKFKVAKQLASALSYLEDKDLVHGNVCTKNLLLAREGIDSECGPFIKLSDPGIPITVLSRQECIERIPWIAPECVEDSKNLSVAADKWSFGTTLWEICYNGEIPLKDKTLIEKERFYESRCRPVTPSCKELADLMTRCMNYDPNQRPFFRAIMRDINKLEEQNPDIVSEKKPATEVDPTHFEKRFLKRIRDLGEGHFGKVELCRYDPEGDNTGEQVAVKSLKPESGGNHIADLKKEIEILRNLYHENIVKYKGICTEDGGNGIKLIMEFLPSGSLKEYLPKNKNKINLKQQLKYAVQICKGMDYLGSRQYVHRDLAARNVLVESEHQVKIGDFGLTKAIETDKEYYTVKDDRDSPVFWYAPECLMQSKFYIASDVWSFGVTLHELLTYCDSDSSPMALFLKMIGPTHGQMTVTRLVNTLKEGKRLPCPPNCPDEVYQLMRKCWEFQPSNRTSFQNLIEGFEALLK
Sequence of JAK2 (O60674 whole entry): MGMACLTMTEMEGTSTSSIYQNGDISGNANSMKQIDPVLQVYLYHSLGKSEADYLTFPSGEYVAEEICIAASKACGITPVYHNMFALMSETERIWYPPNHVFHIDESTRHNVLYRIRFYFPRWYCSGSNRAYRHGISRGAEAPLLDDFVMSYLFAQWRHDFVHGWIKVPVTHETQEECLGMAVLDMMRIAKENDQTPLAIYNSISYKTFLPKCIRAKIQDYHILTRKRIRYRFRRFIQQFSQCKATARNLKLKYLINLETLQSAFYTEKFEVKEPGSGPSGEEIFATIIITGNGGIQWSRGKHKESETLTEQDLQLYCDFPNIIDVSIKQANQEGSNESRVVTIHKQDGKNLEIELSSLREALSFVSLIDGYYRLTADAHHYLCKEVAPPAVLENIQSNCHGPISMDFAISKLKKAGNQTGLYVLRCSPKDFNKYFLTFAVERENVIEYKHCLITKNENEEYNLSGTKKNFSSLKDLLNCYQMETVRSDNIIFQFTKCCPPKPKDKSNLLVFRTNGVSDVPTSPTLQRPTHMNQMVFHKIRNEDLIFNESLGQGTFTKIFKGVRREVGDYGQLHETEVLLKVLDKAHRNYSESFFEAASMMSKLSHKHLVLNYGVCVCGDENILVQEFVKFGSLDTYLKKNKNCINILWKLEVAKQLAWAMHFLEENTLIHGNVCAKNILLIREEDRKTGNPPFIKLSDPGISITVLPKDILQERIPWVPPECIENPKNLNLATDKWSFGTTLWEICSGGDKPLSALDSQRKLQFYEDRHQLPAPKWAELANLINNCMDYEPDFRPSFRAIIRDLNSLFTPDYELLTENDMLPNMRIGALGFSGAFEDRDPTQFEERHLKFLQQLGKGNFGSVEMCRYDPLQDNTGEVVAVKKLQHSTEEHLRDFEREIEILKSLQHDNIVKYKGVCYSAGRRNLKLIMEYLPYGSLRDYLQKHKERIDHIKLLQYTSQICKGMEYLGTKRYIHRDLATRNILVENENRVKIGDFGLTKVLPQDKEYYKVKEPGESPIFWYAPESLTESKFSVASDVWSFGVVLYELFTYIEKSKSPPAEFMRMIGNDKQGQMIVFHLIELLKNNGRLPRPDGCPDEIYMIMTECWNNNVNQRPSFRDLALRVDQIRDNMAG
Sequence of JAK3 (P52333 whole entry): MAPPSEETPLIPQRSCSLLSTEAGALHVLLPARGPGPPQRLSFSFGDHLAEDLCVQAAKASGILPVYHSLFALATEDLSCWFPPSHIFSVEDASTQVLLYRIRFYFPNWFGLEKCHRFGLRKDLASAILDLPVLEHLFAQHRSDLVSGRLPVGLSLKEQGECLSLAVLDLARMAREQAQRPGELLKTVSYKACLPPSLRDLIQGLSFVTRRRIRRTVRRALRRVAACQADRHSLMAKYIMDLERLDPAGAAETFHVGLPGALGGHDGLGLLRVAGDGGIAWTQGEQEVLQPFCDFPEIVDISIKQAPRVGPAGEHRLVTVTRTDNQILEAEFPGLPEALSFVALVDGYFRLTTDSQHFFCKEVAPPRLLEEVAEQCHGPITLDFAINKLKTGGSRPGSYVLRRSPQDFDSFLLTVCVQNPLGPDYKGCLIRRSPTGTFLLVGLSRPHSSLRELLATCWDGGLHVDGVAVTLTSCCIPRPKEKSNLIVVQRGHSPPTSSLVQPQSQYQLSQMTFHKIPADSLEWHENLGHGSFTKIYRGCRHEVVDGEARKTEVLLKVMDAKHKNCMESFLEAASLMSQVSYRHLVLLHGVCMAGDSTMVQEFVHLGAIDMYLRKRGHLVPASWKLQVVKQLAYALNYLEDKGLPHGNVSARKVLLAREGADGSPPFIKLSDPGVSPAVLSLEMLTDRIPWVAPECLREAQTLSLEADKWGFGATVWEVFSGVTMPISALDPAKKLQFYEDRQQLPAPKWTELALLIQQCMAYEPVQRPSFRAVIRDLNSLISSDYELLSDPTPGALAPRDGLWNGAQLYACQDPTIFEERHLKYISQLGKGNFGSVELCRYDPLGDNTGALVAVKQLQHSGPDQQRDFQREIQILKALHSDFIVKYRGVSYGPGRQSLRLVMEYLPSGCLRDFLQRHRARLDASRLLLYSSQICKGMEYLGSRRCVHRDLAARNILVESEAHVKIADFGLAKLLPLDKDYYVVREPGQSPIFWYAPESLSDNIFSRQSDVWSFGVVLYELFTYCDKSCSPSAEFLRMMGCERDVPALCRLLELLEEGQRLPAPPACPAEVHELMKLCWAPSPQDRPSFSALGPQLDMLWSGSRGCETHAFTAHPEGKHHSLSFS
Sequence of Tyk2 (P29597 whole entry): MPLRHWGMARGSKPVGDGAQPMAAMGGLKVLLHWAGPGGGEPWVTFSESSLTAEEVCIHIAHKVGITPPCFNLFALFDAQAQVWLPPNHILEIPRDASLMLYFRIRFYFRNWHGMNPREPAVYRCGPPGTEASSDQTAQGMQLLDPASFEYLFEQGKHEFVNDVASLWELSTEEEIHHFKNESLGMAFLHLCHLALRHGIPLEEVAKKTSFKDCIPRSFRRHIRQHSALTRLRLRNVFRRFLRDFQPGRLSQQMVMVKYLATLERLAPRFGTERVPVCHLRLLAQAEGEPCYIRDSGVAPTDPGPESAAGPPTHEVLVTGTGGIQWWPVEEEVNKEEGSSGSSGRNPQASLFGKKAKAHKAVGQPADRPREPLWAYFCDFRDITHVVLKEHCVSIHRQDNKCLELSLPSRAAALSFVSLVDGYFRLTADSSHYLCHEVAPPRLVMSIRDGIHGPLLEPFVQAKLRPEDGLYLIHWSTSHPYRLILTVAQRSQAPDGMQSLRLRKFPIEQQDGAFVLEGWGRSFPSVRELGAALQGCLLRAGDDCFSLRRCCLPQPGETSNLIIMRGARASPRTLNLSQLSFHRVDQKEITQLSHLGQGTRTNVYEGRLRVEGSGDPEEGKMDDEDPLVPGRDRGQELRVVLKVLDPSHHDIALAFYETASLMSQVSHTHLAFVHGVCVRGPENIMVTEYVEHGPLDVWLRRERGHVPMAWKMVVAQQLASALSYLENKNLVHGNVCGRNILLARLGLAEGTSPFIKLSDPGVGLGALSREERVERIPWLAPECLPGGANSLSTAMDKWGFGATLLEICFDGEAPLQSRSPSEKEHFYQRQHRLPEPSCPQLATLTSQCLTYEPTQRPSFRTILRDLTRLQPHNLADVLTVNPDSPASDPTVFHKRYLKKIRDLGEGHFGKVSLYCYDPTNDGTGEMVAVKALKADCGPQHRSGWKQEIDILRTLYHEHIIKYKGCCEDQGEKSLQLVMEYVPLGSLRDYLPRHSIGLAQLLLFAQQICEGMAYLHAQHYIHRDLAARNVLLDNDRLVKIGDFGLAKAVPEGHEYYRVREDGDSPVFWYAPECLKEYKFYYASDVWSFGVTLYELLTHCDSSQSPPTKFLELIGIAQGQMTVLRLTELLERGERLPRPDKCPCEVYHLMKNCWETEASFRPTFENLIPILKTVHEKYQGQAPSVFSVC

SMILES: CCc1cc(O)c(F)cc1-c1ccc2c(-c3nc4c([nH]3)CCN(C3CC(C)C3)C4)n[nH]c2c1 (stereo not drawn) [Example C-1, 5-Ethyl-2-fluoro-4-(3-(5-(3-methylcyclobutyl)-4,5,6,7-tetrahydro-1H-imidazo[4,5-c]pyridin-2-yl)-1H-indazol-6-yl)phenol, reference compound]
fold less potent than the corresponding compound of the invention in the enzyme assay [1]: 2 fold | fold less potent than the corresponding compound of the invention in the BEAS-2B cellular assay [2]: 6 fold | factor by which lung concentration was smaller than that of the corresponding compound of the invention [3]: 36

SMILES: CCc1cc(O)c(F)cc1-c1ccc2c(-c3nc4c([nH]3)CCN(C3CCN(C)CC3)C4)n[nH]c2c1 [crystalline hydrate, Crystalline hydrate of 5-ethyl-2-fluoro-4-(3-(5-(1-methylpiperidin-4-yl)-4,5,6,7-tetrahydro-1H-imidazo[4,5-c]pyridin-2-yl)-1H-indazol-6-yl)phenol]
weight gain (moisture sorption) ([4]; 5% to 90% relative humidity, about 25° C.): less than 0.12% | hygroscopicity ([4]; two cycles of sorption and desorption): non-hygroscopic

SMILES: CCc1cc(O)c(F)cc1-c1ccc2c(-c3nc4c([nH]3)CCN(CCC(C)C)C4)n[nH]c2c1 [Example C-2, reference compound]
fold less potent than the corresponding compound of the invention in the enzyme assay [1]: 3 fold | fold less potent than the corresponding compound of the invention in the BEAS-2B cellular assay [2]: 6 fold | factor by which lung concentration was smaller than that of the corresponding compound of the invention [3]: 52

SMILES: CCc1cc(O)c(F)cc1-c1ccc2c(-c3nc4c([nH]3)CCN(C[C@@H]3CCCN3C)C4)n[nH]c2c1 [Example 11, (S)-5-ethyl-2-fluoro-4-(3-(5-((1-methylpyrrolidin-2-yl)methyl)-4,5,6,7-tetrahydro-1H-imidazo[4,5-c]pyridin-2-yl)-1H-indazol-6-yl)phenol]
Ki ([1]; ATP at Km 25 μM, read-out: JAK 1 (pKi) (converted)): 0.1 to 1 nM | Ki [5]: 0.1 to 1 nM | Ki [6]: 0.316 to 1 nM | IC50 [2, 10]: < 10 nM | Lung to Plasma ratio Assay 4 [7]: A (A denotes a ratio >100) | inhibition in vivo at 500 µg/mL [3]: 33 to 50% | Percent Inhibition of Alternaria-induced BALF Eosinophils [8]: 71% | Ki [9]: < 0.1 nM

Ki [1, 11]: 1 to 3.16 nM
SMILES: CCc1cc(O)c(F)cc1-c1ccc2c(-c3nc4c([nH]3)CCN(CC3CCN3C3COC3)C4)n[nH]c2c1 (stereo not drawn) [Example 8-11]
IC50 [2, 12]: 39.8 to 1000 nM

SMILES: CCc1cc(O)c(F)cc1-c1ccc2c(-c3nc4c([nH]3)CCN(C3CCC(C)CC3)C4)n[nH]c2c1 (stereo not drawn) [Example C-4, reference compound]
fold less potent than the corresponding compound of the invention in the enzyme assay [1]: 2.5 fold | fold less potent than the corresponding compound of the invention in the BEAS-2B cellular assay [2]: 6 fold | factor by which lung concentration was smaller than that of the corresponding compound of the invention [3]: 23

Ki [1, 11]: 1 to 3.16 nM
SMILES: CCc1cc(O)c(F)cc1-c1ccc2c(-c3nc4c([nH]3)CCN(CC3CCCN3C3COC3)C4)n[nH]c2c1 (stereo not drawn) [Example 4-8]
IC50 [2, 12]: 39.8 to 1000 nM

SMILES: CCc1cc(O)c(F)cc1-c1ccc2c(-c3nc4c([nH]3)CCN(CCNC3CC(OC)C3)C4)n[nH]c2c1 (stereo not drawn) [Example 8, 5-Ethyl-2-fluoro-4-(3-(5-(2-((3-methoxycyclobutyl)amino)ethyl)-4,5,6,7-tetrahydro-1H-imidazo[4,5-c]pyridin-2-yl)-1H-indazol-6-yl)phenol]
Ki [5]: 0.1 to 1 nM | Ki [6]: 0.1 to 1 nM | IC50 [2, 10]: < 10 nM | Lung to Plasma ratio Assay 4 [7]: A (A denotes a ratio >100) | inhibition in vivo at 500 µg/mL [3]: 50 to 65% | Percent Inhibition of Alternaria-induced BALF Eosinophils [8]: 60% | Ki [9]: < 0.1 nM

SMILES: CCc1cc(O)c(F)cc1-c1ccc2c(-c3nc4c([nH]3)CCN(CC3CCCOC3)C4)n[nH]c2c1 (stereo not drawn) [Example C-3, reference compound]
fold less potent than the corresponding compound of the invention in the enzyme assay [1]: 6 fold | fold less potent than the corresponding compound of the invention in the BEAS-2B cellular assay [2]: 3 fold | factor by which lung concentration was smaller than that of the corresponding compound of the invention [3]: 13
